For one experiment, the system named is Porphyromonas. Description: Preventive action on an experimental buccal biofilm model, Porphyromonas count. Type of experiment: cell-based, Porphyromonas gingivalis ATCC 33277. The conditions noted are these: fluorinol compared with NaF, each combined with grape seed extract. As to the method:
The bacterial strains used are: • Streptococcus mutans ATCC 25175 • Streptococcus sobrinus ATCC 33478 • Porphyromonas gingivalis ATCC 33277
These different bacteria, cultivated in their specific medium, are inoculated into 10 mL of universal culture medium FUM (Fluid Universal Medium, composition of the medium in Annex 1), and then incubated in anaerobiosis at 37° C. for 24 hours.
After checking the purity with a microscope, the series of cultures are independently adjusted to OD550 1.0±0.05 (i.e. about 10^7 cells per milliliter) by dilutions with FUM. […]
Serial dilutions to 1:10 of this cell suspension are carried out until concentrations of 10^−2 and 10^−4 are obtained, and then 50 μL of these dilutions are spread over the 4 specific geloses used: mitis salivarius agar, MRS, wilkins chalgren agar (WCA) and blood geloses. The geloses are then placed in anaerobiosis at 37° C. for 48-72 hours and the then the number of formed colonies for each species is counted. […]
The number of colonies formed after 48-72 hours of incubation of the molecules with bacterial biofilms is expressed, after counting, in Colony Forming Units per analyzed Biofilm (or CFU/Biofilm) by the formula:
[Number of counted colonies×dilution factor (10^2 to 10^4)]/Inoculum volume (0.05 mL) […]

In experiment [1] the test system is glucosyl transferases (GTF). Description: Inhibition of glucosyl transferases (GTF): initial reaction rate, released fructose (DNS test). Type of experiment: biochemical, Streptococcus sobrinus ATCC 33478. The procedure:
A strain of Streptococcus sobrinus ATCC 33478 is placed in 1 liter of BHI (brain heart infusion) medium enriched in glucose (10 g/L final concentration) in anaerobiosis at 37° C. for 18 hours. This bacterial medium, the pH of which was brought back to 6.5 by means of a NaOH 1N solution, is then centrifuged for 30 minutes at 8,000 rpm at 4° C. The glucosyl transferase, present in the supernatant is concentrated by precipitation with ammonium sulfate. The latter (50% w/saturation v) is gradually added to the supernatant held at 4° C. under stirring for 30 minutes. The mixture is then centrifuged at 8,000 rpm, 4° for 30 minutes. […]
(§1) The results are expressed as inhibition percentages relatively to control solutions (ultra pure water): • the inhibition percentage of the initial rate of the enzymatic reaction (noted as “fructose” in the following table of results) on the one hand • the inhibition percentage of formation of insoluble glucan produced after 24 hours of incubation at 37° C. […]
Dextran interferes on the whole of the colorimetric methods for assaying proteins, because dextran particles diffract light and generate parasitic absorbance. The amount of glucosyl transferase is therefore measured by its activity under standard conditions. […]

The subject of experiment [2] is glucosyl transferases (GTF). Description: Inhibition of glucosyl transferases (GTF): amount of synthesized insoluble glucan (weighing). In kind it is biochemical, Streptococcus sobrinus ATCC 33478. The conditions noted are these: 24 hours at 37° C. As to the method: A strain of Streptococcus sobrinus ATCC 33478 is placed in 1 liter of BHI (brain heart infusion) medium enriched in glucose (10 g/L final concentration) in anaerobiosis at 37° C. for 18 hours. This bacterial medium, the pH of which was brought back to 6.5 by means of a NaOH 1N solution, is then centrifuged for 30 minutes at 8,000 rpm at 4° C. The glucosyl transferase, present in the supernatant is concentrated by precipitation with ammonium sulfate. The latter (50% w/saturation v) is gradually added to the supernatant held at 4° C. under stirring for 30 minutes. The mixture is then centrifuged at 8,000 rpm, 4° for 30 minutes. The pellet, rich in glucosyl transferase, is then taken up with phosphate/potassium K2HPO4 buffer (10 mM, pH 10.5), dialyzed (MWC 6-8000; width 14.6 mm) for 16 hours and then frozen at −20° C. This is the solution of purified GTF. […]
as §1
The amount of soluble glucan is measured 24 hours after the beginning of the enzymatic reaction. […]

Results on one compound are retold here after patent US20100129297A1, “USE OF AN AQUEOUS GRAPE SEED EXTRACT COMBINED WITH AT LEAST ONE FLUORINE SALT TO COMBAT THE FORMATION OR ACCUMULATION OF DENTAL BIOFILM AND COMPOSITIONS COMPRISING SAID COMBINATION” (priority 2007, published 2010).

SMILES strings stand for the structures.

In the case of `F.OCc1cccnc1` [fluorinol, 3-pyridyl methanol hydrofluoride], in the experiment with Porphyromonas, the “effect of potentialization of the grape seed extract on Porphyromonas” value is reported as “larger than that of NaF”. For the same compound, the “inhibition percentage of the initial enzymatic reaction (fructose)” value is 10.3% in experiment [1] (fluorinol alone 0.68%) and 20.6% in experiment [1] (fluorinol alone 1.02%). In addition, the “synthesis of insoluble glucan” value in experiment [2] (fluorinol alone 0.68%) and in experiment [2] (fluorinol alone 1.02%) was “inefficient” each time.
